Results as given in the NIST ThermoML archive (doi:10.1007/s10765-018-2359-2).
± gives the expanded uncertainty stated by the source.

What was measured:
[1] = xn = mol fraction of the nth substance listed; details: 100 kPa, Liquid; for thermal conductivity: transient hot wire
[2] = 100 kPa, Liquid; for thermal conductivity: transient hot wire

## CCOP(=O)([O-])OCC.CCn1cc[n+](C)c1 [1-ethyl-3-methylimidazolium diethyl phosphate] + O
[1]; 303.15 K, x1 = 0.2
  mass density: 1133.7 ± 10 kg/m3
[1]; 303.15 K, x1 = 0.4
  mass density: 1137.4 ± 10 kg/m3
[1]; 303.15 K, x1 = 0.6
  mass density: 1139.3 ± 10 kg/m3
[1]; 303.15 K, x1 = 0.8
  mass density: 1143.2 ± 10 kg/m3
[1]; 303.15 K, x1 = 1
  mass density: 1144.9 ± 10 kg/m3
[1]; 313.15 K, x1 = 0.2
  thermal conductivity: 0.2341 ± 0.0094 W/m/K
  mass density: 1126 ± 10 kg/m3
[1]; 313.15 K, x1 = 0.4
  thermal conductivity: 0.1964 ± 0.0079 W/m/K
  mass density: 1131.3 ± 10 kg/m3
[1]; 313.15 K, x1 = 0.6
  thermal conductivity: 0.1849 ± 0.0074 W/m/K
  mass density: 1133.3 ± 10 kg/m3
[1]; 313.15 K, x1 = 0.8
  thermal conductivity: 0.1783 ± 0.0072 W/m/K
  mass density: 1137.2 ± 10 kg/m3
[1]; 313.15 K, x1 = 1
  thermal conductivity: 0.1745 ± 0.0071 W/m/K
  mass density: 1139.2 ± 10 kg/m3
[1]; 333.15 K, x1 = 0.2
  mass density: 1112.4 ± 10 kg/m3
[1]; 333.15 K, x1 = 0.4
  mass density: 1118.3 ± 10 kg/m3
[1]; 333.15 K, x1 = 0.6
  mass density: 1121.1 ± 10 kg/m3
[1]; 333.15 K, x1 = 0.8
  mass density: 1124.4 ± 10 kg/m3
[1]; 333.15 K, x1 = 1
  mass density: 1127.2 ± 10 kg/m3
[1]; 353.15 K, x1 = 0.2
  mass density: 1098.8 ± 10 kg/m3
[1]; 353.15 K, x1 = 0.4
  mass density: 1105.7 ± 10 kg/m3
[1]; 353.15 K, x1 = 0.6
  mass density: 1108.9 ± 10 kg/m3
[1]; 353.15 K, x1 = 0.8
  mass density: 1118 ± 10 kg/m3
[1]; 353.15 K, x1 = 1
  mass density: 1115.2 ± 10 kg/m3

## CCOP(=O)([O-])OCC.CCn1cc[n+](C)c1 [1-ethyl-3-methylimidazolium diethyl phosphate]
[2]; 303.15 K
  mass density: 1144.9 ± 10 kg/m3
[2]; 313.15 K
  mass density: 1139.2 ± 10 kg/m3
  thermal conductivity: 0.1745 ± 0.0071 W/m/K
[2]; 333.15 K
  mass density: 1127.2 ± 10 kg/m3
[2]; 353.15 K
  mass density: 1115.2 ± 10 kg/m3

## O [water]
[2]; 302.39 K
  thermal conductivity: 0.6187 ± 0.025 W/m/K
[2]; 314.31 K
  thermal conductivity: 0.6334 ± 0.025 W/m/K
[2]; 333.54 K
  thermal conductivity: 0.656 ± 0.026 W/m/K
[2]; 353.53 K
  thermal conductivity: 0.67 ± 0.027 W/m/K
